Measured values: patent publication US20250152527A1 (priority 2023, published 2025)

Columns and labels:
[1] = tested on: patients with clinically stable coronary disease; test: LoDoCo Trial: colchicine 0.5 mg/day added to standard secondary prevention therapies; format: in vivo, human
Method: This study is described in PCT/AU2013/001261 and is hereby incorporated in its entirety by reference.
All outcomes were evaluated by an experienced adjudicator blinded to the treatment allocation.
Patients with a history of bypass surgery were only eligible if they had undergone bypass surgery more than 10 years before, or had angiographic evidence of graft failure or had undergone stenting since their bypass surgery. All patients signed informed consent before randomization.
Patients who were intolerant to therapy remained in the study, and were followed in the usual manner and included in the primary intention to treat analysis.
The drug was dispensed by their usual chemist, and if requested, patients were reimbursed for the cost of these scripts. All other treatments were continued as usual.
An acute coronary syndrome (ACS) was defined as either (a) Acute Myocardial Infarction (AMI), as evidenced by acute ischemic chest pain associated with a rise in serum troponin above the upper limit of normal or (b) Unstable Angina (UA), as evidenced by a recent acceleration of the patient's angina unassociated with a rise in serum troponin but associated with angiographic evidence of a change in the patient's coronary anatomy. (Unstable Angina Braunwald classification types IB and IIB). The ACS was characterized as being stent-related if there was evidence of significant in-stent stenosis or acute stent thrombosis. Out of Hospital Cardiac Arrest was defined as either a sudden death as evidenced on the patient's death certificate, or a non-fatal out of hospital cardiac arrest, defined as a recovery from sudden collapse associated with documented asystole, ventricular tachycardia or ventricular fibrillation.
The primary efficacy outcome was the composite, ACS, fatal or non-fatal out of hospital cardiac arrest or non-cardio-embolic ischemic stroke. […]
All time to event outcomes were calculated in days by subtracting the date of randomization from either: (1) the date of event or death; or (2) the trial termination date for those patients not experiencing the defined event. […]

[2] = tested on: patients with clinically stable coronary disease; details: Nidorf et al., JACC 2013; 0.5 mg/day in addition to statins and other standard therapies; cited from earlier work

For `COc1cc2c(c(OC)c1OC)-c1ccc(OC)c(=O)cc1[C@@H](NC(C)=O)CC2` [colchicine, (−)-N-[(7S, 12aS)-1,2,3,10-tetramethoxy-9-oxo-5,6,7,9-tetrahydrobenzo[a]heptalen-7-yl]-acetamide], which “patients with ACS unrelated to stent disease associated with an AMI” value ([1]; 4/282 patients) is on record?
The value was 1.4%.

What about the “patients with ACS unrelated to stent disease associated with UA” value ([1]; 5/282 patients) of the same compound?
The value was 1.8%.

What about the “patients with a primary outcome (ACS, out of hospital cardiac arrest or non-cardio-embolic ischemic stroke)” value ([1]; intention to treat, 15/282 patients, colchicine 0.5 mg/day, median follow up 36 months) of the same compound?
Its value is 5.3%.

What about the “prevention of cardiovascular events” value [2] of the same compound?
The value was “appeared effective for the prevention of cardiovascular events”.
